In patent US12263248B2, “Compounds and compositions for intracellular delivery of therapeutic agents” (ModernaTX, Inc., priority 2018, dated 2025):

Tests used:
[1] = rat, MC3-based mRNA containing LNP, 0.3 mg/kg dose mRNA; cited from earlier work
hEPO mRNA = experiment: Pretreatment study in Cynomolgus monkeys (standard MC3 formulation, hEPO mRNA); format: in vivo; conditions: once weekly for four weeks, absence of any pretreatment
Procedure: The effects of pretreatment to non-human primates were evaluated using a standard MC3 formulation including an mRNA encoding hEPO. Male monkeys were administered the nanoparticle composition once weekly for four weeks at a dose rate of 5 ml/kg/h and were pretreated with either methotrexate or dexamethasone.
As shown, in the absence of any pretreatment, maximal expression levels decreased nearly 70% over the course of the study.

[2] = MC3 single cell necrosis in rat liver and liver enzymes; format: in vivo, rats; conditions: rat liver
Procedure: FIG. 37 is a series of graphs illustrating MC3 single cell necrosis in rat liver and liver enzyme. The top row is a pair of images of livers of rats administered with 0.3 mg/kg of a […] (LNP) not containing an mRNA (right) and PBS (phosphate buffered saline) as a control (left). The bottom row is a pair of graphs showing expression of ALT (left) and AST(right) in the liver following administration of a 0.3 mg/kg of a MC3-based LNP containing an mRNA.

[3] = One-month toxicological evaluation with weekly dosing in cynomolgus monkey; format: in vivo
Procedure: (§1) Serum ALT and AST levels: Samples were analyzed using a Modular Analytics analyzer.
Serum C5b9 levels: C5b9 sample analysis was performed using an ELISA method. The kit used was Human C5b-9 ELISA Set and Reagent Set B from BD Bioscience. Study samples were analyzed in singlicate diluted 1/100.
bDNA for measurement of mRNA levels: mRNA sample analysis (bDNA method) was performed using the QuantiGene® 2.0 Reagent System kit from Affymetrix. Study samples were lysed prior to analysis using the QuantiGene Sample Processing Kit (Blood samples). Study samples were analyzed in duplicate diluted between 1/100 and 1/1250000.
(§2) Next, tolerability and safety of the compound 18-based LNPs in vivo was tested. A full toxicological evaluation of compound 18-based LNPs in both Sprague Dawley rat and cynomolgus monkey was performed using a standard one-month study with weekly dosing at three dose levels in each species. Rats were dosed at 0.05, 0.5, and 2 mg/kg and a non-human primates was dosed at 0.1, 0.3, and 1 mg/kg. LNP-related toxicities associated with MC3-based LNP systems are generally associated with immunological (cytokine and complement activation) and hepatic injury. […] FIGS. 32 and 33 highlight the day 30 levels of alanine transferase (ALT, FIG. 32A) and aspartate aminotransferase (AST, FIG. 32B), two indicators of liver damage.

[4] = One-month toxicological evaluation with weekly dosing in rat; format: in vivo, Sprague Dawley rat; conditions: weekly dosing 0.05, 0.5 and 2 mg/kg, one-month study
Procedure: as §1, §2

[5] = Tolerability of Compound 18 formulation in non-human primates, single dose; format: in vivo
Procedure: The tolerability and efficacy of nanoparticle compositions to non-human primates was also investigated using a sample formulation including Compound 18. The formulation was prepared according to the standard MC3 formulation described above and included an hEPO mRNA. Primates were administered a single dose of 0.05 (Group 1), 0.3 (Group 2), or 1.0 (Group 3) mpk via intravenous infusion for 60 minutes. Three primates were administered each dose. Expression of hEPO was measured prior to dosing and at 2, 6, 24, 48, and 96 hours post-treatment (Table 26). Table 28 includes levels of indicators of complement activation, while Table 29 includes cytokine induction data.
In general, lower doses were better tolerated. High doses induced body temperature elevation and hunched posture, which is similar to the behavior observed for primates administered higher doses of MC3 formulations.

[6] = Lipid tissue accumulation in NHP after a single dose; conditions: 12 hours post dose
[7] = Metabolite identification of Compound 18 in human plasma; format: in vitro ADME; parameters: key to Detection in incubation: +: Detected; ND: Not detected; conditions: for Detection in incubation: Compound 18 (10 μM), human plasma
Procedure: Metabolite Identification: Compound 18 (10 μM) was incubated with human plasma (29.0 mg protein/incubation) in incubation mixtures (200 μL final incubation volume) that consisted of 50/50v/v neat plasma (undiluted)/substrate solution in 50 mM phosphate buffer, pH 7.4). The plasma was obtained from male and female donors and contained K2EDTA anticoagulant. Reactions were started by addition of the substrate solution to human plasma and were stopped at four designated time points (0, 30, 60 and 90 min) by the addition of 600 μL of stop reagent (acetonitrile). Stopped incubation samples were centrifuged (e.g., 10,000×g for 10 min at 10° C.) and the supernatant fractions were analyzed by LC-MS/MS to characterize the metabolites formed from compound 18. Additional incubations were performed with the positive control procaine (5 μM) to establish competency of the test system. Samples were analyzed by LC-MS/MS.

human hepatocytes = experiment: Metabolite profiling of Compound 18 with human hepatocytes; format: in vitro ADME; parameters: key to Detection in incubation: +: Detected; ND: Not detected; conditions: Compound 18 (10 μM), human hepatocytes
Procedure: The results of metabolic profiling and characterization for compound 18 incubated with human hepatocytes or human plasma are summarized in Tables 41 and 42, respectively.

[8] = One month toxicology evaluation: C5b9 and MCP-1 serum concentration in cynomolgus monkeys; format: in vivo; conditions: 1 mg/kg mRNA, day 1 and day 29, vs PBS
Excerpt: FIGS. 33A and 33B are a pair of graphs summarizing the results of a one month toxicology evaluation in rats and non-human primates.

[9] = test system: ApoE-mediated LDLr dependent uptake; experiment: Expression in ApoE knockout mice and LDLr knockout mice; conditions: mouse, in vivo
[10] = Tissue distribution and liver tissue clearance of lipid after weekly intravenous doses to CD-1 mice; format: in vivo; conditions: liver tissue, 0.25 mg/kg mRNA, weekly dosing
Excerpt: FIGS. 30A-30C are a series of graphs showing the pharmacokinetic and expression profile of Compound 18 after multiple doses. FIG. […]
FIGS. 35A and 35B are a pair of graphs comparing the tissue distribution of MC3 and compound 18.

[11] = 0.3 mg/kg of MC3-based LNP containing an mRNA
[12] = single dose 0.05, 0.3 or 1.0 mpk, i.v. infusion 60 minutes

In the case of `CCCCC/C=C\C/C=C\CCCCCCCCC(CCCCCCCC/C=C\C/C=C\CCCCC)OC(=O)CCCN(C)C` [MC3, DLin-MC3-DMA, reference compound], the “ALT, AST and pathology” value [1] is given as “ALT and AST were elevated and pathology showed evidence of necrosis”, the “decrease of maximal expression levels over the course of the study” value (hEPO mRNA) is given as about 70% and the pathology ([2]; 0.3 mg/kg MC3-based LNP) is given as “evidence of necrosis”. The ALT [2, 11] was “elevated” and the AST [2, 11] was “elevated”.
For `CCCCCCCCCOC(=O)CCCCCCCN(CCO)CCCCCCCC(=O)OC(CCCCCCCC)CCCCCCCC` [Compound 18, Heptadecan-9-yl 8-((2-hydroxyethyl)(8-(nonyloxy)-8-oxooctyl)amino)octanoate], the “ALT and AST levels” value ([3]; 1 mg/kg dose, day 30) was “at the same level as the control”, the C5b9 levels ([3]; after dose 1 or dose 5) was “no significant change” and the adverse findings [4] was “no adverse findings”. The reticulocyte counts ([5]; all groups, Day 5) was “marked increase”, the “tolerability of the formulation” value ([5]; non-human primates, single dose) was “tolerated similarly to the MC3 formulation” and the “Complement activation and cytokine release (IL-6 and MCP-1)” value ([5]; single dose 0.05, 0.3 or 1.0 mpk) was “dose-related and reversible”. The “Alanine aminotransferase (ALT) levels” value [5, 12] was “did not increase”, the “Aspartate aminotransferase (AST)” value [5, 12] was “increased in the high dose group on Day 2 and returned to baseline by Day 5” and the “lipid levels in tissues” value [6] was “significantly lower levels”. For the same compound, the Detection in incubation ([7]; 0 min) was “+”, the Detection in incubation ([7]; 30 min) was “+” and the Detection in incubation ([7]; 60 min) was “+”. The Detection in incubation ([7]; 90 min) was “+”, the “initial step of metabolism” value ([7]; in vitro metabolite identification studies) was “primary ester hydrolysis to compound 166” and the Detection in incubation (human hepatocytes; 0 min) was “+”. The Detection in incubation (human hepatocytes; 60 min) was “+”, the Detection in incubation (human hepatocytes; 120 min) was “+” and the Detection in incubation (human hepatocytes; 240 min) was “+”. The C5b9 serum concentration ([8]; all timepoints) was “No statistical difference”, the MCP-1 serum concentration ([8]; any timepoint other than the one marked *p<0.05) was “no statistical difference” and the “expression in ApoE knockout mice and LDLr knockout mice” value [9] was “almost complete loss in expression”. For the same compound, the primary metabolite [10] was “compound 166”.
